ChEMBL document CHEMBL4813956, “Cytotoxic Physalins from Aeroponically Grown Physalis acutifolia” (J Nat Prod, 2021)
pIC50: −log10 of the molar value.

Legend:
[1] = test system: WI-38; assay: Cytotoxicity against human WI-38 cells assessed as cell growth inhibition measured after 24 to 72 hrs by MTT assay; assay type: cell-based
[2] = test system: NCI-H460; assay: Cytotoxicity against human NCI-H460 cells assessed as cell growth inhibition measured after 24 to 72 hrs by MTT assay; assay type: functional, cell-based
[3] = test system: SF-268; assay: Cytotoxicity against human SF-268 cells assessed as cell growth inhibition measured after 24 to 72 hrs by MTT assay; assay type: functional, cell-based
[4] = test system: PC-3; assay: Cytotoxicity against human PC-3 cells assessed as cell growth inhibition measured after 24 to 72 hrs by MTT assay; assay type: functional, cell-based
[5] = test system: MCF7; assay: Cytotoxicity against human MCF7 cells assessed as cell growth inhibition measured after 24 to 72 hrs by MTT assay; assay type: functional, cell-based
[6] = test system: NCI-H460; assay: Cytotoxicity against human NCI-H460 cells assessed as cell growth inhibition measured after 24 to 72 hrs in presence of 2,3-dihydrophysalin F-3beta-O-sulfate by MTT assay; assay type: functional, cell-based
[7] = test system: PC-3; assay: Cytotoxicity against human PC-3 cells assessed as cell growth inhibition measured after 24 to 72 hrs in presence of 2,3-dihydrophysalin F-3beta-O-sulfate by MTT assay; assay type: functional, cell-based
[8] = test system: SF-268; assay: Cytotoxicity against human SF-268 cells assessed as cell growth inhibition measured after 24 to 72 hrs in presence of 2,3-dihydrophysalin F-3beta-O-sulfate by MTT assay; assay type: functional, cell-based
[9] = test system: WI-38; assay: Cytotoxicity against human WI-38 cells assessed as cell growth inhibition measured after 24 to 72 hrs in presence of 2,3-dihydrophysalin F-3beta-O-sulfate by MTT assay; assay type: cell-based
[10] = test system: MCF7; assay: Cytotoxicity against human MCF7 cells assessed as cell growth inhibition measured after 24 to 72 hrs in presence of 2,3-dihydrophysalin F-3beta-O-sulfate by MTT assay; assay type: functional, cell-based
[11] = test system: WI-38; assay: Cytotoxicity against human WI-38 cells assessed as cell growth inhibition up to 10 uM measured after 24 to 72 hrs by MTT assay relative to control; assay type: cell-based; conditions: time 24-72 hrs
[12] = test system: NCI-H460; assay: Cytotoxicity against human NCI-H460 cells assessed as cell growth inhibition up to 10 uM measured after 24 to 72 hrs by MTT assay relative to control; assay type: functional; conditions: dose microM <=10; time 24-72 hrs
[13] = test system: MCF7; assay: Cytotoxicity against human MCF7 cells assessed as cell growth inhibition up to 10 uM measured after 24 to 72 hrs by MTT assay relative to control; assay type: functional; conditions: dose microM <=10; time 24-72 hrs
[14] = test system: PC-3; assay: Cytotoxicity against human PC-3 cells assessed as cell growth inhibition up to 10 uM measured after 24 to 72 hrs by MTT assay relative to control; assay type: functional; conditions: dose microM <=10; time 24-72 hrs
[15] = test system: SF-268; assay: Cytotoxicity against human SF-268 cells assessed as cell growth inhibition up to 10 uM measured after 24 to 72 hrs by MTT assay relative to control; assay type: functional; conditions: dose microM <=10; time 24-72 hrs
[16] = test system: MCF7; assay: Cytotoxicity against human MCF7 cells assessed as cell growth inhibition measured after 24 hrs by MTT assay; assay type: functional, cell-based; conditions: MCF7, 24 h
[17] = test system: PC-3; assay: Cytotoxicity against human PC-3 cells assessed as cell growth inhibition measured after 24 hrs by MTT assay; assay type: functional, cell-based; conditions: PC-3, 24 h
[18] = test system: MCF7; assay: Cytotoxicity against human MCF7 cells assessed as cell growth inhibition measured after 24 to 72 hrs in presence of 5beta,6beta-epoxy-2,3-dihydrophysalin C-3beta-O-sulfate by MTT assay; assay type: functional, cell-based
[19] = test system: PC-3; assay: Cytotoxicity against human PC-3 cells assessed as cell growth inhibition measured after 24 to 72 hrs in presence of 5beta,6beta-epoxy-2,3-dihydrophysalin C-3beta-O-sulfate by MTT assay; assay type: functional, cell-based
[20] = test system: SF-268; assay: Cytotoxicity against human SF-268 cells assessed as cell growth inhibition measured after 24 to 72 hrs in presence of 5beta,6beta-epoxy-2,3-dihydrophysalin C-3beta-O-sulfate by MTT assay; assay type: functional, cell-based
[21] = test system: WI-38; assay: Cytotoxicity against human WI-38 cells assessed as cell growth inhibition measured after 24 to 72 hrs in presence of 5beta,6beta-epoxy-2,3-dihydrophysalin C-3beta-O-sulfate by MTT assay; assay type: cell-based
[22] = test system: NCI-H460; assay: Cytotoxicity against human NCI-H460 cells assessed as cell growth inhibition measured after 24 to 72 hrs in presence of 5beta,6beta-epoxy-2,3-dihydrophysalin C-3beta-O-sulfate by MTT assay; assay type: functional, cell-based

C[C@]12C(=O)C=CCC1=CC[C@@H]1[C@@H]2CC[C@]2(O)C(=O)O[C@@]3(C)[C@H]4C[C@]5(C)[C@@H](CO[C@@]16O[C@@]32[C@H]5C6=O)C(=O)O4 [PHYSALIN B] gave a pIC50 [1] of 5.48, a pIC50 [2] of 6.05 and a pIC50 [3] of 6.22. It also gave a pIC50 [4] of 6.00 and a pIC50 [5] of 6.00.
Compound C=C1C(=O)O[C@@H]2C[C@@]1(C)[C@@H]1C(=O)[C@]3(O)O[C@@]14[C@@](O)(CC[C@H]1[C@H]3C[C@H]3O[C@]35C[C@@H](OS(=O)(=O)O)CC(=O)[C@]15C)C(=O)O[C@@]24C has a pIC50 [6] of 5.70, a pIC50 [7] of 5.59 and a pIC50 [8] of 5.62. For the same compound, the pIC50 [9] was under 5.00 and the pIC50 [10] was under 5.14.
For C[C@@H]1C(=O)O[C@@H]2C[C@@]1(C)[C@@H]1C(=O)[C@]3(O)O[C@@]14[C@@](O)(CC[C@H]1[C@H]3C[C@H]3O[C@]35CCCC(=O)[C@]15C)C(=O)O[C@@]24C, the “growth inhibition (GI)” value [11] was under 50%, the “growth inhibition (GI)” value [12] was under 50% and the “growth inhibition (GI)” value [13] was under 50%. For the same compound, the “growth inhibition (GI)” value [14] was under 50% and the “growth inhibition (GI)” value [15] was under 50%.
In the case of C/C(=C1/C(=O)C[C@H]2[C@@H]3[C@@H]4O[C@@H]4[C@@]4(O)CC=CC(=O)[C@]4(C)[C@H]3CC(=O)[C@]12C)[C@H]1C[C@]2(C)O[C@]2(C)C(=O)O1, the pIC50 [1] was under 5.00, the pIC50 [16] was under 4.00 and the pIC50 [2] was 5.19. The pIC50 [3] was 5.14, the pIC50 [17] was 4.17 and the pIC50 [4] was 5.64. The pIC50 [5] was under 5.00.
COc1cccc2c1C(=O)c1c(O)c3c(c(O)c1C2=O)C[C@@](O)(C(=O)CO)C[C@@H]3O[C@H]1C[C@H](N)[C@H](O)[C@H](C)O1 [DOXORUBICIN] gave a pIC50 [3] of 6.30.
CO[C@]12CC=CC(=O)[C@]1(C)[C@H]1CC[C@@]3(O)C(=O)O[C@@]4(C)[C@H]5C[C@]6(C)[C@@H](CO[C@@]7(O[C@]34[C@H]6C7=O)[C@@H]1C[C@H]2O)C(=O)O5 was tested, and the “growth inhibition (GI)” value [11] was under 50%, the “growth inhibition (GI)” value [12] was under 50% and the “growth inhibition (GI)” value [13] was under 50%. For the same compound, the “growth inhibition (GI)” value [14] was under 50% and the “growth inhibition (GI)” value [15] was under 50%.
C[C@@]12C[C@H]3OC(=O)[C@@H]1CO[C@]14O[C@]5([C@H]2C1=O)[C@@](O)(CC[C@H]1[C@H]4C[C@@H](O)[C@@]2(Cl)CC=CC(=O)[C@]12C)C(=O)O[C@@]35C showed a pIC50 [1] of 5.41, a pIC50 [2] of 6.22 and a pIC50 [3] of 6.10. For the same compound, the pIC50 [4] was 6.00 and the pIC50 [5] was 5.68.
For C=C1C(=O)O[C@@H]2C[C@@]1(C)[C@@H]1C(=O)[C@]3(O)O[C@@]14[C@@](O)(CC[C@H]1[C@H]3C[C@H]3O[C@]35CC=CC(=O)[C@]15C)C(=O)O[C@@]24C, the pIC50 [1] was 5.41, the pIC50 [2] was 5.92 and the pIC50 [3] was 6.05. The pIC50 [4] was 6.00 and the pIC50 [5] was 5.77.
With CO[C@@H]1CC(=O)[C@]2(C)[C@H]3CC[C@@]4(O)C(=O)O[C@@]5(C)[C@H]6C[C@]7(C)[C@@H](CO[C@@]8(O[C@]45[C@H]7C8=O)[C@@H]3C[C@H]3O[C@]32C1)C(=O)O6 the “growth inhibition (GI)” value [11] was under 50%, the “growth inhibition (GI)” value [12] was under 50% and the “growth inhibition (GI)” value [13] was under 50%. For the same compound, the “growth inhibition (GI)” value [14] was under 50% and the “growth inhibition (GI)” value [15] was under 50%.
CC(=O)O[C@]12O[C@@]34[C@@H](C1=O)[C@]1(C)C[C@@H](OC(=O)[C@H]1C)[C@]3(C)OC(=O)[C@]4(O)CC[C@H]1[C@H]2C[C@H]2O[C@]23CCCC(=O)[C@]13C was tested, and the “growth inhibition (GI)” value [11] was under 50%, the “growth inhibition (GI)” value [12] was under 50% and the “growth inhibition (GI)” value [13] was under 50%. The “growth inhibition (GI)” value [14] was under 50% and the “growth inhibition (GI)” value [15] was under 50%.
With C[C@@]12C[C@H]3OC(=O)[C@@H]1CO[C@]14O[C@@]5([C@H]2C1=O)[C@@]3(C)OC(=O)[C@@]5(O)CC[C@H]1[C@H]4C[C@@H](O)[C@@]2(O)CC=CC(=O)[C@]12C the “growth inhibition (GI)” value [11] was under 50%, the “growth inhibition (GI)” value [12] was under 50% and the “growth inhibition (GI)” value [13] was under 50%. The “growth inhibition (GI)” value [14] was under 50% and the “growth inhibition (GI)” value [15] was under 50%.
With C[C@@]12C[C@H]3OC(=O)[C@@H]1CO[C@]14O[C@@]5([C@H]2C1=O)[C@@]3(C)OC(=O)[C@@]5(O)CC[C@H]1[C@H]4C[C@H]2O[C@]23CC=CC(=O)[C@]13C the pIC50 [1] was 5.46, the pIC50 [2] was 6.00 and the pIC50 [3] was 6.30. It also gave a pIC50 [4] of 6.00 and a pIC50 [5] of 6.22.
Compound C=C1C(=O)O[C@@H]2C[C@@]1(C)[C@@H]1C(=O)[C@]3(O)O[C@@]14[C@@](O)(CC[C@H]1[C@H]3C[C@@H](O)[C@@]3(Cl)CC=CC(=O)[C@]13C)C(=O)O[C@@]24C has a pIC50 [1] of 5.49, a pIC50 [2] of 6.22 and a pIC50 [3] of 6.30. For the same compound, the pIC50 [4] was 6.10 and the pIC50 [5] was 5.92.
C[C@@]12C[C@H]3OC(=O)[C@@H]1CO[C@]14O[C@]5([C@H]2C1=O)[C@@](O)(CC[C@H]1[C@H]4C[C@H]2O[C@]24C[C@@H](OS(=O)(=O)O)CC(=O)[C@]14C)C(=O)O[C@@]35C gave a pIC50 [18] of under 5.14, a pIC50 [19] of 5.59 and a pIC50 [20] of 5.62. It also gave a pIC50 [21] of under 5.00 and a pIC50 [22] of 5.70.
